Measured values taken from patent publication EP4562004B1, “NOVEL 7-SUBSTITUTED INDOLE SULFONAMIDE DERIVATIVES” (F. Hoffmann-La Roche AG, priority 2022, dated 2024).

The compounds below were run against human GPR17 short isoform (Homo sapiens, UniProt Q13304) (assay: GPR17 cAMP assay (antagonist mode, TR-FRET cAMP detection)). Conditions: CHO-K1 cells stably expressing human GPR17 short isoform; with EC80 concentration of agonist MDL29,951, IBMX 0.5mM, forskolin 15µM; normalized to reference antagonist; read-out: hGPR17 cAMP IC50.
Sequence of human GPR17 short isoform (Q13304 29-367): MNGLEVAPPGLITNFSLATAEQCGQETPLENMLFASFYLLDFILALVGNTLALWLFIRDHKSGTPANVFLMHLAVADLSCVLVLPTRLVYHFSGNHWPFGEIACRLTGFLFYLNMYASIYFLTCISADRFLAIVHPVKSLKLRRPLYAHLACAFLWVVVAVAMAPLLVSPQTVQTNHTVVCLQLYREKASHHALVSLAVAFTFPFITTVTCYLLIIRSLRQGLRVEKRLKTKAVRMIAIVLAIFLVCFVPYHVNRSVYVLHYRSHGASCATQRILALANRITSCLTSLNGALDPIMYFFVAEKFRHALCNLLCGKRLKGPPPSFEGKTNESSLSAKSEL
Format: cell-based
Summary of the method: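 Antagonist-mode TR-FRET cAMP read-out (90 min lysis/detection) in CHO-K1 cells carrying human GPR17 short isoform. Compounds with EC80 MDL29,951 agonist and 0.5 mM IBMX, forskolin 15 µM final 5 min later, 30 min room temperature in HBSS/HEPES/BSA pH 7.4. Sigmoidal curves on activity relative to reference antagonist maximum.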

Going from COc1nc(NS(=O)(=O)c2c[nH]c3c(-n4cccn4)c(C)ccc23)nc(OC)c1OCCF [Example 82, N-[5-(2-fluoroethoxy)-4,6-dimethoxy-pyrimidin-2-yl]-6-methyl-7-pyrazol-1-yl-1H-indole-3-sulfonamide] to COc1nc(NS(=O)(=O)c2c[nH]c3c(-n4cccn4)c(Br)ccc23)nc(OC)c1OCCF [Example 83, 6-bromo-N-[5-(2-fluoroethoxy)-4,6-dimethoxy-pyrimidin-2-yl]-7-pyrazol-1-yl-1H-indole-3-sulfonamide], the IC50 falls from 68 nM to 36 nM (1.9-fold).

First: [2H]C([2H])(F)C([2H])([2H])Oc1c(OC)nc(NS(=O)(=O)c2c[nH]c3c(-n4cccn4)c(Br)ccc23)nc1OC [Example 84, 6-bromo-N-[4,6-dimethoxy-5-(1,1,2,2-tetradeuterio-2-fluoro-ethoxy)pyrimidin-2-yl]-7-pyrazol-1-yl-1H-indole-3-sulfonamide]
Second: [2H]C([2H])(F)C([2H])([2H])Oc1c(OC)nc(NS(=O)(=O)c2c[nH]c3c(-n4nccn4)c(Cl)ccc23)nc1OC [Example 85, 6-chloro-N-[4,6-dimethoxy-5-(1,1,2,2-tetradeuterio-2-fluoro-ethoxy)pyrimidin-2-yl]-7-(triazol-2-yl)-1H-indole-3-sulfonamide]
The IC50 of the first is 1.6-fold lower: 26 nM for the first, 42 nM for the second. The first is the more potent here.

Work on [2H]C([2H])(c1c(OC)nc(NS(=O)(=O)c2c[nH]c3c(-n4cccn4)c(Cl)ccc23)nc1OC)C(F)F [Example 86, 6-chloro-N-[5-(1,1-dideuterio-2,2-difluoroethyl)-4,6-dimethoxy-pyrimidin-2-yl]-7-pyrazol-1-yl-1H-indole-3-sulfonamide] yielded an IC50 of 44 nM.
